Experimental data published in US8778987B2, “Use of 4-hydroxychalcone derivatives for masking an unpleasant taste” (Symrise AG, priority 2008, dated 2014).

Experiments:
Format in all cases: in vivo
[1] = tested on: bitter impression of aqueous caffeine solution; experiment: Reducing bitterness of a bitter substance solution, rated by a panel of experts (caffeine); settings: 500 ppm caffeine; for Bitter impression (1-10) with: error = 95% confidence range
Description: (§1) In order to quantify the reduction in the bitter impression, the bitterness of an aqueous bitter substance solution and a sample containing the same quantity of bitter substance and a varying quantity of the exemplary compound, was determined by a panel of experts (rating 0 [not bitter] to 10 [extremely bitter]). Evaluation took place by calculating the reduction (in %) in the bitter impression from the average values of the assessments of the bitter substance solution or the solutions containing bitter substance and exemplary compound. […] (2,4-DHB) was used as a comparison from U.S. Pat. No. 5,643,941.

[2] = tested on: bitter impression of aqueous salicin solution; experiment: Reducing bitterness of a bitter substance solution, rated by a panel of experts (salicin); settings: 30 ppm substance, 250 ppm salicin
Description: as §1

[3] = tested on: taste impressions of meat stock with 0.4 wt. % sodium chloride and 0.4 wt. % potassium chloride; experiment: Reduction in unpleasant taste impressions of potassium chloride-containing meat stock (triangle difference testing); settings: 30 ppm
Description: A fat- and common salt-free meat stock is prepared with 0.4 wt. % sodium chloride and 0.4 wt. % potassium chloride (in each case relative to total weight) (comparison solution A). The same solution is prepared again and a quantity of phloretin (compound 4 from Example 1) is added. Solution A is served up to the testers once with the designation “standard solution”, and at the same time solution A and solution B are served up as “test solution 1” or “test solution 2” in a random order unknown to the respective tester (i.e. solutions A and B may have different designations for different testers; each tester has to test three solutions). In a first test phase, the testers are asked whether one of the three solutions tastes different from the other two (triangle difference testing). If the response to this question is “No”, the test is stopped for that tester. If the response to this question is “Yes”, the tester has to quantify the flavor qualities, listed below, of “test solution 1” or “test solution 2” deviating from the “standard solution” (relative to the “standard solution”, 0 flavor quality identical to the standard, −4 very much weaker than the standard, +4 very much stronger than the standard). Taking as basis the results from all the testers, the average of all deviations from the “standard solution” is calculated for the individual flavor qualities.

[4] = tested on: bitter impression of aqueous quinine hydrochloride solution; experiment: Reducing bitterness of a bitter substance solution, rated by a panel of experts (quinine hydrochloride); settings: 30 ppm substance, 5 ppm quinine hydrochloride
Description: as §1

SMILES | % reduction in bitter impression ([1]; 100 ppm substance) | Tester positive (number of testers who were able to identify masking) ([1]; 100 ppm substance, 15 testers total) | Bitter impression (1-10) with ([1]; 100 ppm substance) | % reduction in bitter impression [2] | Tester positive (number of testers who were able to identify masking) ([2]; 15 testers total) | Bitter impression (1-10) with ([2]; error = 95% confidence range) | % reduction in bitter impression ([1]; 50 ppm substance) | Tester positive (number of testers who were able to identify masking) ([1]; 50 ppm substance) | Bitter impression (1-10) with ([1]; 50 ppm substance) | Positive testers ([3]; of 21 testers, triangle difference testing) | Aromaticity, average deviation from standard solution ([3]; scale −4 to +4) | Bitter, average deviation from standard solution ([3]; scale −4 to +4) | Mouth fullness, average deviation from standard solution ([3]; scale −4 to +4) | Sour, average deviation from standard solution ([3]; scale −4 to +4) | Sweet, average deviation from standard solution ([3]; scale −4 to +4) | Salty, average deviation from standard solution ([3]; scale −4 very much weaker to +4 very much stronger than the standard) | % reduction in bitter impression [4] | Tester positive (number of testers who were able to identify masking) ([4]; 15 testers total) | Bitter impression (1-10) with ([4]; error = 95% confidence range)
O=C(O)c1ccc(O)cc1O [2,4-DHB, 2,4-dihydroxybenzoic acid, reference compound] | 3%, n.s. | 9 | 5.0 ± 1.0 |  |  |  |  |  |  |  |  |  |  |  |  |  |  |  | 
O=C(CCc1ccc(O)cc1)c1c(O)cc(O)cc1O [Compound 4, 3-(4-hydroxyphenyl)-1-(2,4,6-trihydroxy-phenyl)propan-1-one] |  |  |  | 18%, p < 0.1 | 10 | 6.0 ± 1.8 | 28%, p < 0.05 | 13 | 3.9 ± 1.8 | 16 (p < 0.05) | −0.1 | −0.4 | 0.3 | 0.1 | 0.9 | −0.7 | 25%, n.s. | 10 | 2.0 ± 1.4
